Structures are written as SMILES. The source made the active and inactive calls. The rule behind the calls is not given here.

Broadly, the IC50 is the concentration that gives 50% inhibition. A lower IC50 goes with inhibition by little substance. One may read the EC50 as the concentration needed to bring the measured effect to its halfway point. The CC50 is the concentration that lowers cell viability or growth by half.

Series [1] in a line: Inhibition of Influenza A virus H5N1 neuraminidase. Further details: species or system H5N1 subtype.
In series [2] the test system is H5N1 subtype. Nature of the series: Antiviral activity against Influenza A virus H5N1 (A/chicken/Hubei/327/2004(H5N1)) infected in dog MDCK cells assessed as inhibition of virus replication by plaque reduction assay. It is filed as functional, organism-based. (In general: Plaques are areas of infected cells; plaque reduction assays count them against a control.)
Series [3] is described as follows: Cytotoxicity against dog MDCK cells assessed as decrease in cell viability by CCK8 assay. The series is classed as cell-based, Canis lupus familiaris. In general terms: Formazan colour is commonly taken as a measure of viable cells.
Series [4] is described as follows: Selectivity index, ratio of CC50 for cytotoxicity against dog MDCK cells to EC50 for antiviral activity against Influenza A virus (A/chicken/Hubei/327/2004(H5N1)) infected in dog MDCK cells. It is filed as toxicity, cell-based. The note with it: read-out: Ratio CC50/EC50.
Series [5] concerns H5N1 subtype. Nature of the series: Potency index, ratio of oseltamivir carboxylate IC50 to test compound IC50 for inhibition of Influenza A virus H5N1 neuraminidase.
The subject of a further series is A549. Briefly: Antiviral activity against Influenza A virus H5N1 infected in human A549 cells assessed as inhibition of viral replication by TCID50 assay. To be noted: H5N1 subtype. It is filed as functional, cell-based.

In the case of `CCOC(=O)c1c(NC(=O)COc2ccc(NC(C)=O)cc2)sc(C(=O)OC)c1C`, the half-maximal inhibitory concentration (IC50) in series [1] was determined as 50 nM. That is a double-digit nanomolar value.

For `CCOC(=O)c1c(NC(=O)COc2ccc(C=O)cc2)sc(C(=O)OC)c1C`, in series [1], the IC50 turned out to be 8860 nM.

Take `CCOC(=O)c1c(NC(=O)COc2ccccn2)sc(C(=O)OC)c1C`: in series [1], the IC50 was 960 nM. Against the preceding molecule, the IC50 is about 9.2-fold lower.

In turn, `CCOC(=O)c1c(NC(=O)COc2cccc(C=O)c2)sc(C(=O)OC)c1C` came in with a half-inhibitory concentration (IC50) in series [1] of 5650 nM. This IC50 is about 5.9-fold higher than that of the molecule before.

For the molecule `CCOC(=O)c1c(NC(=O)COc2cccc3ncccc23)sc(C(=O)OC)c1C`, the IC50 in series [1] turned out to be 40 nM.

On to `CCOC(=O)c1c(NC(=O)COc2cccc(C(C)=O)c2)sc(C(=O)OC)c1C`, for which the IC50 in series [1] stood at 4770 nM.

Consider `CCOC(=O)c1c(NC(=O)COc2ccc3ncccc3c2)sc(C(=O)OC)c1C`, for which the EC50 with H5N1 subtype [2] stood at 1590 nM. Moreover, in series [3], the CC50 is more than 800000 nM. Also, the selectivity ratio in series [4] is more than 500. Moreover, the Ratio IC50 with H5N1 subtype [5] stood at 2. The outcome in the series with A549 was Active. The midpoint of inhibition in series [1], the IC50, lay at 30 nM.

In turn, `CCOC(=O)c1c(NC(=O)COc2cc(Br)ccc2OC)sc(C(=O)OC)c1C` gave a half-inhibitory concentration (IC50) in series [1] of 240 nM.

`CCOC(=O)c1c(NC(=O)COc2ccc(C=O)cc2OC)sc(C(=O)OC)c1C` came in with an IC50 in series [1] of 4390 nM.

Consider `CCOC(=O)c1c(NC(=O)COc2ccc(C=O)cc2OCC)sc(C(=O)OC)c1C`, for which the IC50 in series [1] is 70 nM.

Values taken from ChEMBL document CHEMBL4828742, “Discovery of novel thiophene derivatives as potent neuraminidase inhibitors” (Eur J Med Chem, 2021).
